Experimental data: ChEMBL document CHEMBL3272001, “Nuclear analogues of beta-lactam antibiotics. 4. Total synthesis of bisnorisopenicillins from beta-lactam precursors” (1978)
Values after ≈ are worked out from the molar mass of the structure shown.

Tests used:
Format in all cases: functional
Staphylococcus aureus = test: Antibacterial activity against Staphylococcus aureus SK&F 23390 assessed as […]
Klebsiella aerogenes = test: Antibacterial activity against Enterobacter aerogenes ATCC 13048 assessed as […]
Klebsiella pneumoniae = test: Antibacterial activity against Klebsiella pneumoniae SK&F 1200 assessed as […]
Escherichia coli [1] = test: Antibacterial activity against Escherichia coli HH 33779 assessed as […]
Serratia marcescens = test: Antibacterial activity against Serratia marcescens ATCC 13880 assessed as […]
Enterococcus faecalis = test: Antibacterial activity against Streptococcus faecalis HH 34358 assessed as […]
Morganella morganii = test: Antibacterial activity against Proteus morganii 179 assessed as […]
Escherichia coli [2] = test: Antibacterial activity against Escherichia coli SK&F 12140 assessed as […]

CC(=O)OCC1=C(C(=O)O)N2C(=O)[C@@H](NC(=O)Cc3cccs3)[C@H]2SC1 [CEPHALOTHIN]
MIC (Staphylococcus aureus): 0.2 µM (≈ 0.0793 µg/mL)
MIC (Klebsiella aerogenes): 14 µM (≈ 5.55 µg/mL)
MIC (Klebsiella pneumoniae): 3.6 µM (≈ 1.43 µg/mL)
MIC (Escherichia coli [1]): 7 µM (≈ 2.78 µg/mL)
MIC (Serratia marcescens): > 453 µM
MIC (Enterococcus faecalis): 14 µM (≈ 5.55 µg/mL)
MIC (Morganella morganii): > 453 µM
MIC (Escherichia coli [2]): 7 µM (≈ 2.78 µg/mL)
